Publication PMC11532403 (Signal Transduction and Targeted Therapy, 2024)
Read-outs that look alike come from different tables or passages of the source.

How the values were obtained:
[1] = system: RET-altered / thyroid / lung tumors; conditions: cited from earlier work
MET = system: MET; parameters: method as in earlier work; conditions: read-out: MET IC50 ± SD; cited from earlier work
VEGFR-2 = system: VEGFR-2; parameters: method as in earlier work; conditions: read-out: VEGFR-2 IC50 ± SD; cited from earlier work
patients = conditions: cited from earlier work
hERG potassium channel = hERG potassium channel (Homo sapiens, UniProt Q12809); parameters: method as in literature; conditions: in vitro GLP hERG assay, ref literature; cited from earlier work
[2] = system: HEK293T-KIF5B-RET^V804M xenograft; experiment: Tumor xenograft model; format: in vivo, BALB/c nude mice; conditions: 20 mg/kg twice daily, 14 days
Protocol: All procedures relating to animal handling, care, and treatment were performed according to the Beijing Laboratory Animal Management Regulations. 6-week-old male BALB/c nude mice were inoculated subcutaneously into the flank with Baf3-CCDC6-RET^WT (5*10^6 cells/ 0.1 mL/ each), Baf3-CCDC6-RET^M918T (5*10^6 cells/0.1 mL/each), Baf3-CCDC6-RET^V804M (5*10^6 cells/ 0.1 mL/ each), or HEK293T-KIF5B-RET^V804M (5*10^6 cells/ 0.1 mL/ each). Mice were randomized by tumor size into groups of 10 to 12 when tumor volume reached approximately 100-150 mm^3. […] Tumor size and body weight were measured two times each week, and tumor volume was calculated with the following formula: [length × (width)^2]/ 2. Statistical significance was calculated by using two-way ANOVA test to assess the difference in tumor volumes between the control (vehicle-treated) and treatment groups.

RET = conditions: cited from earlier work

Sequence of hERG potassium channel (Q12809 whole entry): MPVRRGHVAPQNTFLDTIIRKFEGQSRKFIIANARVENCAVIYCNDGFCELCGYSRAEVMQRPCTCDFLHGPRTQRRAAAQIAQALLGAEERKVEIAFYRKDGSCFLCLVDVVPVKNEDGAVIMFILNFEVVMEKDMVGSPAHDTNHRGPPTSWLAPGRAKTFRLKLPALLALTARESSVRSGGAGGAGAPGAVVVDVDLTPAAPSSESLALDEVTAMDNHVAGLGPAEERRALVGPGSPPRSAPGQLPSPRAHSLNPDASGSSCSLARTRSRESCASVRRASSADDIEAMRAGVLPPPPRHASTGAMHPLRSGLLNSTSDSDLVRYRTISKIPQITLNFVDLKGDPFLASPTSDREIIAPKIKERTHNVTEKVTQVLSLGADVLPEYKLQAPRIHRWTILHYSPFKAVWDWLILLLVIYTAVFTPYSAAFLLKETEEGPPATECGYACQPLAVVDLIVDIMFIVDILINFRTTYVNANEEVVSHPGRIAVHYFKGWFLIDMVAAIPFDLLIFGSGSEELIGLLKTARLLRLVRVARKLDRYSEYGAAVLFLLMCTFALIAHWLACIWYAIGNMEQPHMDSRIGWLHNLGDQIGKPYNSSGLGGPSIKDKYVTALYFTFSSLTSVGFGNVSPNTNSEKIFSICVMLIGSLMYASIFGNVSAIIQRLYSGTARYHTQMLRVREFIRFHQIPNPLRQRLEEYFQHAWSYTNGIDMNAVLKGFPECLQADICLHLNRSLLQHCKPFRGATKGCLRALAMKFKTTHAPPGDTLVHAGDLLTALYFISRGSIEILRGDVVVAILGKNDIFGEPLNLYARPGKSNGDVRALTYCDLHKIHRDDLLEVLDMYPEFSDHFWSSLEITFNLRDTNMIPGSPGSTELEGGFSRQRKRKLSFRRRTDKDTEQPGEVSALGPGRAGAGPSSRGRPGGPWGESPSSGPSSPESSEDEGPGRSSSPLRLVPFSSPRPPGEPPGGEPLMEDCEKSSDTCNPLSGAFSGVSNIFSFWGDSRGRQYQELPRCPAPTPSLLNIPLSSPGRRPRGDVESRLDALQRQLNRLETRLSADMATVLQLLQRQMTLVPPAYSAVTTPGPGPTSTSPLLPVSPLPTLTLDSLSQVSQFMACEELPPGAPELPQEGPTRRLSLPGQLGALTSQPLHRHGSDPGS

For `COc1cc2nccc(Oc3ccc(NC(=O)C4(C(=O)Nc5ccc(F)cc5)CC4)cc3)c2cc1OC` [cabozantinib], the ORR ([1]; NCT00704730, MTC ref 89) is listed as 28%, the mPFS ([1]; NCT00704730, MTC, 140 mg/d ref 89) is listed as 11.2 months and the mOS ([1]; RET M918T-positive subgroup ref 89) is listed as 44.3 months. For the same compound, the IC50 (MET) was 1.3 ± 1.2 nM and the IC50 (VEGFR-2) was 0.035 ± 0.01 nM.

For `COc1cc2nccc(Oc3ccc(NC(=O)NC4CC4)c(Cl)c3)c2cc1C(N)=O` [lenvatinib], the ORR ([1]; NCT01877083, RET fusion NSCLC, 24 mg/d ref 93) is listed as 16%, the DCR ([1]; NCT01877083 ref 93) is listed as 76% and the mPFS ([1]; NCT01877083 ref 93) is listed as 7.3 months. The “Patients with grade 3 or higher AEs” value (patients; NCT01877083 ref 93) was 92%.

For `CO[C@]1(C(=O)N[C@@H](C)c2ccc(-n3cc(F)cn3)nc2)CC[C@H](c2nc(C)cc(Nc3cc(C)[nH]n3)n2)CC1` [pralsetinib], the Complete response ([1]; ARROW, NSCLC ref 101) is given as 14%, the “Patients with tumor shrinkage” value ([1]; ARROW, NSCLC ref 101) is given as 95% and the ORR ([1]; ARROW, RET fusion-positive NSCLC ref 101) is given as 61%. The ORR ([1]; ARROW, RET fusion-positive NSCLC, previously treated ref 29) was 59%, the ORR ([1]; ARROW, RET fusion-positive NSCLC, treatment-naïve ref 29) was 72% and the ORR ([1]; ARROW, RET-mutant MTC previously treated with vandetanib ref 101) was 60%. The ORR ([1]; ARROW, treatment-naïve MTC ref 101) was 74%, the ORR ([1]; ARROW, treatment-naïve RET-mutant MTC ref 31) was 71% and the “Grade ≥ 3 TRAEs” value (patients; ARROW ref 22,29) was 54%. The “Grade ≥ 3 anemia” value (patients; ARROW ref 22,29) was 12%, the “Grade ≥ 3 hypertension” value (patients; ARROW ref 22,29) was 12% and the “Grade ≥ 3 leukopenia” value (patients; ARROW ref 22,29) was 8%. The “Grade ≥ 3 lymphopenia” value (patients; ARROW ref 22,29) was 9%, the “Grade ≥ 3 neutropenia” value (patients; ARROW ref 22,29) was 20% and the TRSAEs (patients; ARROW ref 22,29) was 24%. For the same compound, the Treatment-induced deaths (patients) was 0.4%, the Treatment-induced discontinuations (patients) was 7% and the Treatment-induced dose reductions (patients) was 38%.

In the case of `COc1ccc(CN2C3CC2CN(c2ccc(-c4cc(OCC(C)(C)O)cn5ncc(C#N)c45)cn2)C3)cn1` [selpercatinib], the ORR ([1]; LIBRETTO-001, 19 RET fusion-positive thyroid cancer ref 96-97) is given as 79%, the ORR ([1]; LIBRETTO-001, 39 NSCLC without systemic therapy ref 96-97) is given as 84% and the ORR ([1]; LIBRETTO-001, 105 RET fusion-positive NSCLC ref 96-97) is given as 64%. For the same compound, the ORR ([1]; LIBRETTO-001, NSCLC, previously treated ref 28) was 61%, the ORR ([1]; LIBRETTO-001, RET-mutant thyroid cancer, 55 previously treated ref 96-97) was 69% and the ORR ([1]; LIBRETTO-001, RET-mutant thyroid cancer, 88 not previously treated ref 96-97) was 73%. The ORR ([1]; LIBRETTO-431, NSCLC, treatment-naïve ref 30) was 84%, the ORR ([1]; LIBRETTO-531, RET-mutant MTC ref 32) was 69.4% and the “1-year DoR rate” value ([1]; previously treated ref 28) was 73.1%. For the same compound, the “1-year PFS rate” value ([1]; previously treated ref 28) was 70.5%, the “1-year DoR rate” value ([1]; treatment-naïve ref 28) was 66.1% and the “1-year PFS rate” value ([1]; treatment-naïve ref 28) was 70.6%. For the same compound, the “Grade ≥ 3 TRAEs” value (patients; LIBRETTO-001 ref 28) was 38.6%, the “Grade ≥ 3 hypertension” value (patients; LIBRETTO-001 ref 28) was 13.2% and the “Grade ≥ 3 increased ALT” value (patients; LIBRETTO-001 ref 28) was 9.0%. For the same compound, the “Grade ≥ 3 increased AST” value (patients; LIBRETTO-001 ref 28) was 6.3%, the TRSAEs (patients; LIBRETTO-001 ref 28) was 11% and the Treatment-induced deaths (patients) was 0.1%. For the same compound, the Treatment-induced discontinuations (patients) was 3%, the Treatment-induced dose reductions (patients) was 41% and the IC50 (hERG potassium channel) was 1100 nM. It also gave a TGI [2] of 45.2%.

For `CNC(=O)c1cc(Oc2ccc(NC(=O)Nc3ccc(Cl)c(C(F)(F)F)c3)cc2)ccn1` [sorafenib], the PR rate ([1]; DECISION ref 80) is listed as 12.2%.

In the case of `COc1cc2c(Nc3ccc(Br)cc3F)ncnc2cc1OCC1CCN(C)CC1` [vandetanib], the IC50 (RET) is given as […].
